Assay [1] deals with HUT78. The experiment in a line: TUNEL assay, vorinostat, JAK inhibitor and combination. The format is cell-based, human. The note with it: for % TUNEL positive cells: HUT78 cells, 48 h, induction of apoptosis.
Assay [2] relates to JM1. The experiment in a line: ApoONE Homogeneous Caspase-3/7 Assay. The following applies: cell line JM1. The format is cell-based, human. The method, then:
(§1) Apoptosis assay: ApoONE® Homogeneous Caspase-3/7 Assay (Promega) was performed according to standard protocol (Promega). For the caspase assay cell lines were seeded and treated with vorinostat as previously indicated. After 24 hours of treatment, a volume equal to the media volume in each well of Apo-One Caspase 3/7 lysis was added to each well with cells. The apoptosis assay was then performed according to the manufacturer's instructions. The plates were read on the Flex Station II 384 from Molecular Devices. Where indicated, DNA fragmentation in response to vorinostat was also assessed in some cell lines by TUNEL assay (BD-PharMingen). […] Samples were analyzed by flow cytometry (FACSCalibur).
(§2) An expanded set of 50 human cell lines, including the twelve cell lines listed in Table 1, were assembled (Table 2), that represent a range of lymphoid tumor types (including 10 diffuse large B cell lymphoma, 10 Burkitt lymphoma, 8 multiple myeloma and 5 CTCL).

The subject of assay [3] is BC_3. The experiment in a line: ApoONE Homogeneous Caspase-3/7 Assay. The class given is cell-based, human. The following applies: cell line BC_3. The method, then: as §1, §2
The test system of assay [4] is Toledo. As to the kind of experiment: ApoONE Homogeneous Caspase-3/7 Assay. The class given is cell-based, human. The method, then: as §1, §2
Assay [5] deals with SUP_T1. As to the kind of experiment: ApoONE Homogeneous Caspase-3/7 Assay. The class given is cell-based, human. The following applies: cell line SUP_T1 (SUPT1). The method, then: as §1, §2
Assay [6] has as its system ST486. The experiment in a line: ApoONE Homogeneous Caspase-3/7 Assay. The format is cell-based, human. The following applies: cell line ST486. The method, then: as §1, §2
Assay [7] deals with HH. The experiment in a line: ApoONE Homogeneous Caspase-3/7 Assay. The format is cell-based, human. The following applies: cell line HH. The method, then:
as §1, §2

Assay [8] deals with HUT_102. As to the kind of experiment: CellTiter-Blue Cell Viability Assay. The format is cell-based. The following applies: Homo sapiens, HuT-102; cell line HUT_102 (HUT102), Lymphoma - CTCL; read-out: IC50 (μM) (Cell Titre-Blue assay). The method, then:
(§3) For the proliferation assay, cell lines were seeded on 96-well plates (Corning). […] The CellTiter-Blue Reagent™ was added to each of the wells. Experiments were performed in triplicate. The plates were then placed at 37° C. for two hours, and subsequently read on the Flex Station II […] from Molecular Devices. The IC50 values were calculated using the Sigma Plot software.
as §2
A general note: Resazurin is reduced to fluorescent resorufin, in cell work by metabolically active cells.

For assay [9], the system named is RL. As to the kind of experiment: CellTiter-Blue Cell Viability Assay. The following applies: Homo sapiens; cell line RL, Lymphoma - DLBCL; read-out: IC50 (μM) (Cell Titre-Blue assay). The class given is cell-based. The method, then:
as §3, §2

Assay [10] concerns HuT_78. The experiment in a line: CellTiter-Blue Cell Viability Assay. The class given is cell-based. The note with it: Homo sapiens, HuT78; cell line HuT_78, Lymphoma- CTCL; read-out: IC50 (μM) (Cell Titre-Blue assay). The method, then: as §3, §2
For assay [11], the system named is SU_DHL_4. As to the kind of experiment: CellTiter-Blue Cell Viability Assay. The class given is cell-based. The following applies: Homo sapiens, SU-DHL-4; cell line SU_DHL_4, Lymphoma DLBCL; read-out: IC50 (μM) (Cell Titre-Blue assay). The method, then: as §3, §2
In assay [12] the test system is Toledo. As to the kind of experiment: CellTiter-Blue Cell Viability Assay. The format is cell-based. The note with it: Homo sapiens, cell line Toledo (1), Lymphoma DLBCL, read-out: IC50 (μM) (Cell Titre-Blue assay). The method, then: as §3, §2
Assay [13] relates to IM_9. The experiment in a line: CellTiter-Blue Cell Viability Assay. The following applies: Homo sapiens, IM-9; cell line IM_9, Multiple Myeloma; read-out: IC50 (μM) (Cell Titre-Blue assay). The class given is cell-based. The method, then: as §3, §2
Assay [14] deals with DB. The experiment in a line: CellTiter-Blue Cell Viability Assay. The format is cell-based. The note with it: Homo sapiens; cell line DB, Lymphoma DLBCL; read-out: IC50 (μM) (Cell Titre-Blue assay). The method, then:
as §3, §2

Assay [15] deals with OCI_LY_19. As to the kind of experiment: CellTiter-Blue Cell Viability Assay. The format is cell-based. The note with it: Homo sapiens, OCI-LY19; cell line OCI_LY_19, Lymphoma DLBCL; read-out: IC50 (μM) (Cell Titre-Blue assay). The method, then: as §3, §2

Each structure is given as a SMILES string.

Usually IC50 stands for the concentration that gives 50% inhibition.

For `CC(C)(C)c1nc2c3cc[nH]c(=O)c3c3cc(F)ccc3c2[nH]1` [Compound B, 2-tert-butyl-9-fluoro-1,6-dihydro-7H-benzo[h]imidazo[4,5-f]isoquinolin-7-one], in [1] (HUT78 CTCL cells, as detailed in Table 4), the “induction of apoptosis in combination with vorinostat (TUNEL assay)” value is listed as “synergistic induction of apoptosis”. Also, the “% TUNEL positive cells” value in assay [1] was found to be 37%.

Regarding `CN[C@@H]1C[C@H]2O[C@@](C)([C@@H]1OC)n1c3ccccc3c3c4c(c5c6ccccc6n2c5c31)C(=O)NC4` [ST, staurosporine], the “% TUNEL positive cells” value in [1] was found to be 40%.

On to `O=C(CCCCCCC(=O)Nc1ccccc1)NO` [vorinostat, suberoylanilide hydroxamic acid], for which the “Caspase 3,7 activation- 24 h (1 μM vorinostat)*” value in assay [2], in assay [3], in [4] (cell line Toledo (1)), in assay [4] (cell line Toledo (avg)), in assay [5] and in [6] was “+ (Caspase 3,7 activation > 2 fold over untreated control.)” in each case. Further, the “Caspase 3,7 activation- 24 h (1 μM vorinostat)*” value in assay [7] is given as “+ (Caspase 3,7 activation > 2 fold over untreated control.)”. For the same compound, the “% TUNEL positive cells” value in assay [1] is listed as 11%. Besides, the IC50 was determined as 0.83 µM in assay [8]; 2.23 µM in assay [9]; 2.13 µM in [10]; 1.88 µM in [11]; 0.66 µM in [12]; 1.57 µM in assay [13]. Besides, the IC50 in [14] was 1.87 µM; in assay [15] it was 1.58 µM.
